In ChEMBL document CHEMBL6109047, “Synthesis strategies and anti-parasitic evaluation of novel compounds for chagas disease: Advancing drug discovery through structure-activity relationships” (Eur J Med Chem, 2025):

Key:
[1] = Toxicity in CD-1 mouse infected with Trypanosoma cruzi Y trypomastigotes assessed as mortality at 50 mg/kg/day, po pre-infected with parasite followed by compound addition and measured after 15 days relative to control; type: organism-based; settings: in vivo, 360 h, time 15 day
[2] = Toxicity in CD-1 mouse infected with Trypanosoma cruzi Y MHOM/MX/1994/NINOA from blood stream trypomastigotes assessed as reduction in parasite growth by measuring lethal concentration; settings: in vivo, 24 h
[3] = Toxicity in CD-1 mouse infected with Trypanosoma cruzi Y MHOM/MX/1994/INC5 from blood stream trypomastigotes assessed as reduction in parasite growth by measuring lethal concentration; settings: in vivo, 24 h
Trypanosoma cruzi [4] = assay: Antitrypanosomal activity against Trypanosoma cruzi Tulahuen amastigotes expressing Escherichia coli beta-galactosidase infected in LLC-MK2 cells incubated for 48 hrs; type: functional, organism-based; settings: LLC-MK2, 48 h
Trypanosoma cruzi [5] = assay: Trypanocidal activity against Trypanosoma cruzi Tulahuen-2 epimastigotes incubated for 24 hrs by Neubauer chamber method; type: functional, organism-based; settings: Tulahuen-2, 24 h
Trypanosoma cruzi [6] = assay: Antitrypanosomal activity against bloodstream […] form of Trypanosoma cruzi Y; type: functional, organism-based
Trypanosoma cruzi [7] = assay: Antitrypanosomal activity against bloodstream trypomastigote form of Trypanosoma cruzi Y; type: functional, organism-based
[8] = Cytotoxicity against rhesus monkey LLC-MK2 cells; type: toxicity, cell-based, Macaca mulatta
Trypanosoma cruzi [9] = assay: Antitrypanosomal activity against Trypanosoma cruzi Y strain trypomastigotes Vero cells assessed as inhibition of parasite growth incubated for 24 hrs by Neubauer chamber based analysis; type: functional, organism-based
Trypanosoma cruzi [10] = assay: Antitrypanosomal activity against bloodstream trypomastigote form of Trypanosoma cruzi Y assessed as parasite growth inhibition incubated for 24 hrs by light microscopic analysis; type: functional, organism-based
Trypanosoma cruzi [11] = assay: Trypanocidal activity against Trypanosoma cruzi NINOA epimastigotes incubated for 24 hrs by Neubauer chamber method; type: functional, organism-based
Trypanosoma cruzi [12] = assay: Antitrypanosomal activity against Trypanosoma cruzi Tulahuen-2 infected in […] J774 cells assessed as inhibition of parasite proliferation; type: functional, organism-based; settings: Tulahuen-2, J774
Trypanosoma cruzi [13] = assay: Anti-trypanosomal activity against Trypanosoma cruzi Y trypomastigotes infected in mouse RAW264.7 cells assessed as inhibition of parasite release measured for 48 hrs; type: functional, organism-based; settings: RAW264.7, 48 h
Trypanosoma cruzi [14] = assay: Antitrypanosomal activity against bloodstream trypomastigote form of Trypanosoma cruzi Y assessed as reduction in parasite growth; type: functional, organism-based

**Q.** With `O=C(N/N=C/c1ccc(F)cc1)c1ccccc1` as the compound, how does the Activity [1] read?
**A.** 46.2%

**Q.** For `c1ccc(CSc2nc3ccccc3s2)cc1`, which LC50 [2] is on record?
**A.** 123 µM

**Q.** And the LC50 [3]?
**A.** 336 µM

**Q.** Which IC50 (Trypanosoma cruzi [4]) does the source give for `NC(=S)N/N=C(\C=C\c1ccc(Cl)cc1)c1ccccc1` here?
**A.** 12.2 µM

**Q.** Which IC50 (Trypanosoma cruzi [5]) does the source give for `Fc1cccc(Nc2cnc3ccccc3c2)c1` here?
**A.** 13.5 µM

**Q.** What about the IC50 (Trypanosoma cruzi [6]) of the same compound?
**A.** 22.8 µM

**Q.** And the IC50 (Trypanosoma cruzi [7])?
**A.** 420 µM

**Q.** For `Fc1ccc(Nc2cnc3ccccc3c2)cc1`, which IC50 (Trypanosoma cruzi [5]) is on record?
**A.** 11.3 µM

**Q.** What about the IC50 (Trypanosoma cruzi [6]) of the same compound?
**A.** 10.9 µM

**Q.** What about the IC50 (Trypanosoma cruzi [7]) of the same compound?
**A.** 616 µM

**Q.** With `O=C(Cn1cccc1[N+](=O)[O-])Nc1cccc(C(F)(F)F)c1` as the compound, how does the CC50 at 48 h [8] read?
**A.** 2.1 µM

**Q.** Which IC50 (Trypanosoma cruzi [9]) does the source give for `C/C(=N\N=C1/NC(=O)C(c2ccccc2)S1)c1cc(Cl)ccc1Cl` (stereo not given) here?
**A.** 0.85 µM

**Q.** Which results are given for `Fc1cccc(F)c1CSc1nc2ccccc2s1`?
**A.** LC50 [2]: 110 µM; LC50 [3]: 260 µM

**Q.** With `Fc1c(F)c(F)c(CSc2nc3ccccc3s2)c(F)c1F` as the compound, how does the LC50 [2] read?
**A.** 147 µM

**Q.** What about the LC50 [3] of the same compound?
**A.** 185 µM

**Q.** For `CCOC(=O)c1csc(N/N=C/c2ccco2)n1`, which IC50 (Trypanosoma cruzi [10]) is on record?
**A.** 2.75 µM

**Q.** Which IC50 (Trypanosoma cruzi [7]) does the source give for `COc1ccc(-c2c(/C=N/N=C(/N)SC)c(C(F)(F)F)nn2-c2ccccc2)cc1` here?
**A.** 19.1 µM

**Q.** For `COc1cc(OC)cc(OC2=C(Oc3cc(OC)cc(OC)c3OC)C(=O)c3ccccc3C2=O)c1`, which IC50 (Trypanosoma cruzi [5]) is on record?
**A.** 0.49 µM

**Q.** What about the IC50 (Trypanosoma cruzi [11]) of the same compound?
**A.** 1.3 µM

**Q.** What about the IC50 (Trypanosoma cruzi [12]) of the same compound?
**A.** 43 µM

**Q.** For `COc1ccc(/C(CN2C(=O)c3ccccc3C2=O)=N\Nc2nc(-c3ccc(OC)cc3)cs2)cc1`, which IC50 (Trypanosoma cruzi [13]) is on record?
**A.** 4.48 µM

**Q.** With `O=C1c2ccccc2C(=O)N1C/C(=N/NC(=S)Nc1ccccc1)c1ccc(Cl)cc1Cl` as the compound, how does the IC50 (Trypanosoma cruzi [13]) read?
**A.** 3.6 µM

**Q.** For `CCOC(=O)c1csc(N/N=C/c2ccccc2Br)n1`, which IC50 (Trypanosoma cruzi [10]) is on record?
**A.** 0.83 µM

**Q.** What does the source list for `COC(=O)/C=C/c1ccc2c(c1)C(C(=O)OC)C(c1ccc(O)cc1)O2` (stereo not given)?
**A.** IC50 (Trypanosoma cruzi [6]): 3.26 µM; IC50 (Trypanosoma cruzi [4]): 11.9 µM; CC50 at 48 h [8]: 49.9 µM

**Q.** Which IC50 (Trypanosoma cruzi [7]) does the source give for `CC1CCc2oc3c(c2C1)C(=O)c1ccccc1C3=O` (stereo not given) here?
**A.** 0.031 µM

**Q.** Which results are given for `Clc1ccc(Nc2cnc3ccccc3c2)cc1`?
**A.** IC50 (Trypanosoma cruzi [5]): 12 µM; IC50 (Trypanosoma cruzi [6]): 25.8 µM; IC50 (Trypanosoma cruzi [7]): > 500 µM

**Q.** With `CC1CCc2oc3c(c2C1)C(=O)C(=O)c1ccccc1-3` (stereo not given) as the compound, how does the IC50 (Trypanosoma cruzi [7]) read?
**A.** 0.074 µM

**Q.** With `COC(=O)/C=C/c1ccc2c(c1)C(C(=O)OC)C(c1ccc(O)c(OC)c1)O2` (stereo not given) as the compound, how does the IC50 (Trypanosoma cruzi [4]) read?
**A.** 7.96 µM

**Q.** What about the CC50 at 48 h [8] of the same compound?
**A.** 0.86 µM

**Q.** With `C/C(=N\N=C1\NC(=O)C(c2ccccc2)S1)c1ccc(Cl)cc1Cl` (stereo not given) as the compound, how does the IC50 (Trypanosoma cruzi [9]) read?
**A.** 1.12 µM

**Q.** With `O=C1c2ccccc2C(=O)N1C/C(=N/NC(=S)Nc1ccccc1)c1ccc(F)cc1` as the compound, how does the IC50 (Trypanosoma cruzi [13]) read?
**A.** 3.75 µM

**Q.** Which IC50 (Trypanosoma cruzi [5]) does the source give for `Cc1ccc(OC2=C(Br)C(=O)c3ccccc3C2=O)c(C)c1` here?
**A.** 0.45 µM

**Q.** What about the IC50 (Trypanosoma cruzi [11]) of the same compound?
**A.** 1.69 µM

**Q.** What about the IC50 (Trypanosoma cruzi [12]) of the same compound?
**A.** 51 µM

**Q.** For `CS/C(N)=N\N=C\c1c(C(F)(F)F)nn(-c2ccccc2)c1-c1ccc(Br)cc1`, which IC50 (Trypanosoma cruzi [7]) is on record?
**A.** 25.7 µM

**Q.** For `O=C(O)Cc1ccccc1/C=C/c1ccc2cccc(O)c2n1`, which EC50 (Trypanosoma cruzi [14]) is on record?
**A.** 40.8 µM

**Q.** For `CC(C)(C)C1CCc2oc3c(c2C1)C(=O)c1ccccc1C3=O` (stereo not given), which IC50 (Trypanosoma cruzi [7]) is on record?
**A.** 0.033 µM

**Q.** With `CCC1S/C(=N\N=C(/C)c2ccc(Cl)cc2Cl)NC1=O` (stereo not given) as the compound, how does the IC50 (Trypanosoma cruzi [9]) read?
**A.** 2.57 µM

**Q.** For `O=C1C(=O)c2c(oc3c2CCCC3)-c2ccccc21`, which IC50 (Trypanosoma cruzi [7]) is on record?
**A.** 0.064 µM

**Q.** For `O=C1c2ccccc2C(=O)c2c1oc1c2CCCC1`, which IC50 (Trypanosoma cruzi [7]) is on record?
**A.** 0.129 µM

**Q.** For `CCOC(=O)c1csc(N/N=C(\C)c2ccccc2)n1`, which IC50 (Trypanosoma cruzi [10]) is on record?
**A.** 2.83 µM

**Q.** For `NC(=S)N/N=C/c1c(C(F)(F)F)nn(-c2ccccc2)c1-c1ccc(Br)cc1`, which IC50 (Trypanosoma cruzi [7]) is on record?
**A.** 30 µM

**Q.** Which EC50 (Trypanosoma cruzi [14]) does the source give for `COc1cccc(/C=C/c2ccc3cccc(O)c3n2)c1CC(=O)O` here?
**A.** 36 µM

**Q.** With `CCOC(=O)c1csc(N/N=C/c2cccc(Cl)c2)n1` as the compound, how does the IC50 (Trypanosoma cruzi [10]) read?
**A.** 4.44 µM

**Q.** With `O=C(Cn1ccnc1[N+](=O)[O-])NCc1ccccc1` [BENZNIDAZOLE] as the compound, how does the IC50 (Trypanosoma cruzi [9]) read?
**A.** 6.26 µM

**Q.** And the IC50 (Trypanosoma cruzi [10])?
**A.** 34.5 µM

**Q.** And the Activity [1]?
**A.** 68.3%

**Q.** And the IC50 (Trypanosoma cruzi [4])?
**A.** 5.64 µM

**Q.** And the CC50 at 48 h [8]?
**A.** 156 µM

**Q.** And the IC50 (Trypanosoma cruzi [7])?
**A.** 91 µM
